Measured values published in article PMC9233935 (Journal of medicinal chemistry, 2022).
pIC50: −log10 of the molar value. In brackets after ≈: the same amount, converted by molar mass. Where two headings read alike, the source gives them in different places.

Assays:
[1] = test system: S. aureus ATTC 25923; experiment: microbe, parasite or virus in culture; conditions: Staphylococcus aureus, ATTC25923, read-out: Sau MIC
[2] = target: Mtb gyrase (Mycobacterium tuberculosis, UniProt P9WG45+P9WG47); experiment: biochemical; assay type: biochemical
Chain of Mtb gyrase (P9WG45 whole entry, looked up): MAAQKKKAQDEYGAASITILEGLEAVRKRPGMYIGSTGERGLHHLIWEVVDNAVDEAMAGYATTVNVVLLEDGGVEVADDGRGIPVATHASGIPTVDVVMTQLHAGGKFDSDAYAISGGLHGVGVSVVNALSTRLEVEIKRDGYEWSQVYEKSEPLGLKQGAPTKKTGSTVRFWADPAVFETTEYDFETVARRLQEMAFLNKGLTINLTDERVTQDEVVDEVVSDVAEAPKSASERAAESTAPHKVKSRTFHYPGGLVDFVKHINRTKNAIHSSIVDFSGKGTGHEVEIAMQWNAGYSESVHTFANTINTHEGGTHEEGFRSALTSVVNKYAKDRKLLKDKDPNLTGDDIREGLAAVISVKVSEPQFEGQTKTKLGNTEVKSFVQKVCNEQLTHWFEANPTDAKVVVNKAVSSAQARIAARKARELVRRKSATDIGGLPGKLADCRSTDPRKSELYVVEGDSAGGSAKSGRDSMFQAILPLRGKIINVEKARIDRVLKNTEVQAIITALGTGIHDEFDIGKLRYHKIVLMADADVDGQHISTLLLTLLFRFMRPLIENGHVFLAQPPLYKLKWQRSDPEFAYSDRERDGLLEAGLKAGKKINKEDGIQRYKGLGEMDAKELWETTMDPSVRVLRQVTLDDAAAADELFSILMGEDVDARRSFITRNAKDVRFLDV
Chain of Mtb gyrase (P9WG47 whole entry, looked up): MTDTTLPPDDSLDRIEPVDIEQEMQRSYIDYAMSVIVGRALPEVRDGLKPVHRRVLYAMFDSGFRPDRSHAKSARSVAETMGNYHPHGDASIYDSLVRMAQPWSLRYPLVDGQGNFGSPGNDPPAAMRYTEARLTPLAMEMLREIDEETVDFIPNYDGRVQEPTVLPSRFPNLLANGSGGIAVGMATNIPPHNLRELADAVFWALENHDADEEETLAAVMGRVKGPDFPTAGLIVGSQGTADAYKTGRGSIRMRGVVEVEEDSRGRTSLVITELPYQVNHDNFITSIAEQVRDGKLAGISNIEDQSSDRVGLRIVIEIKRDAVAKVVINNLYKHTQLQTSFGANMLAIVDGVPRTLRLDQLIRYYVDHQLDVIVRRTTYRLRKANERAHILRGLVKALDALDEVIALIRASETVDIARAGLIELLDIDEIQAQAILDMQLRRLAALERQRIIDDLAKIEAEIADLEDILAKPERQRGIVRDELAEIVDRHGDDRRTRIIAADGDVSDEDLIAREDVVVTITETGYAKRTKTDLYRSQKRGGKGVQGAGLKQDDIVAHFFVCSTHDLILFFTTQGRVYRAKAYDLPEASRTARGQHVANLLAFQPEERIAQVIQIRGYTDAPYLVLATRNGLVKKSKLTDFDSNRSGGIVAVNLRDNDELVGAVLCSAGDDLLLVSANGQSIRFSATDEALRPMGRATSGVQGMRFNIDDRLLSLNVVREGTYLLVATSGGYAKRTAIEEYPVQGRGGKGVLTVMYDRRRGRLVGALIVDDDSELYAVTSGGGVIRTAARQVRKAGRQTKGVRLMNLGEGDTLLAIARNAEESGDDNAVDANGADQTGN

[3] = test system: M. tuberculosis H37Rv; experiment: microbe, parasite or virus in culture; assay type: cell-based, Mycobacterium tuberculosis; conditions: for MIC: Mycobacterium tuberculosis, H37RV, read-out: Mtb MIC

`C[C@@H]1CN2c3c(cc4c(N5CC[C@@H](O)C5)noc4c3F)CC3(C(=O)NC(=O)NC3=O)[C@H]2[C@H](C)O1` [Compound 9, (2R,4S,4aS)-11-fluoro-8-((R)-3-hydroxypyrrolidin-1-yl)-2,4-dimethyl-1,2,4,4a-tetrahydro-2’H,6H-spiro[isoxazolo[4,5-g][1,4]oxazino[4,3-a]quinoline-5,5’-pyrimidine]-2’,4’,6’(1’H,3’H)-trione] was tested. Which MIC [1] did it give?
The MIC was 64 µM (≈ 30.3 µg/mL).

For `C[C@@H]1CN2c3c(cc4c(N5C[C@H](O)[C@@H](O)C5)noc4c3F)CC3(C(=O)NC(=O)NC3=O)[C@H]2[C@H](C)O1` [Compound 11, (2R,4S,4aS)-8-((3S,4S)-3,4-dihydroxypyrrolidin-1-yl)-11-fluoro-2,4-dimethyl-1,2,4,4a-tetrahydro-2’H,6H-spiro[isoxazolo[4,5-g][1,4]oxazino[4,3-a]quinoline-5,5’-pyrimidine]-2’,4’,6’(1’H,3’H)-trione], which MIC [1] is on record?
Its MIC is greater than 125 µM.

Which MIC [1] does the source give for `C[C@@H]1CN2c3c(cc4c(N5C[C@@H](O)[C@@H](O)C5)noc4c3F)CC3(C(=O)NC(=O)NC3=O)[C@H]2[C@H](C)O1` [Compound 12, (2R,4S,4aS)-8-((3R,4S)-3,4-dihydroxypyrrolidin-1-yl)-11-fluoro-2,4-dimethyl-1,2,4,4a-tetrahydro-2’H,6H-spiro[isoxazolo[4,5-g][1,4]oxazino[4,3-a]quinoline-5,5’-pyrimidine]-2’,4’,6’(1’H,3’H)-trione] here?
Its MIC is greater than 125 µM.

For `C[C@@H]1CN2c3c(cc4c(N5CC[C@H](CO)C5)noc4c3F)CC3(C(=O)NC(=O)NC3=O)[C@H]2[C@H](C)O1` [Compound 14, (2R,4S,4aS)-11-fluoro-8-((S)-3-(hydroxymethyl)pyrrolidin-1-yl)-2,4-dimethyl-1,2,4,4a-tetrahydro-2’H,6H-spiro[isoxazolo[4,5-g][1,4]oxazino[4,3-a]quinoline-5,5’-pyrimidine]-2’,4’,6’(1’H,3’H)-trione], which “Mtb gyrase IC50 fold higher (less potent) than moxifloxacin” value (from here on “Mtb gyrase IC50 fold higher”) [2] is on record?
The value was no more than 2 fold.

How did the MIC ([3]; 192 h) turn out when `C[C@@H]1CN2c3c(cc4c(N5CC[C@@](C)(O)C5)noc4c3F)CC3(C(=O)NC(=O)NC3=O)[C@H]2[C@H](C)O1` [Compound 15, 11-fluoro-8-(3-hydroxy-3-methylpyrrolidin-1-yl)-2,4-dimethyl-1,2,4,4a-tetrahydro-2’H,6H-spiro[isoxazolo[4,5-g][1,4]oxazino[4,3-a]quinoline-5,5’-pyrimidine]-2’,4’,6’(1’H,3’H)-trione] was run?
The MIC was greater than 125 µM.

For `C[C@@H]1CN2c3c(cc4c(N5CC[C@H](N)C5)noc4c3F)CC3(C(=O)NC(=O)NC3=O)[C@H]2[C@H](C)O1` [Compound 16, (2R,4S,4aS)-8-((S)-3-aminopyrrolidin-1-yl)-11-fluoro-2,4-dimethyl-1,2,4,4a-tetrahydro-2’H,6H-spiro[isoxazolo[4,5-g][1,4]oxazino[4,3-a]quinoline-5,5’-pyrimidine]-2’,4’,6’(1’H,3’H)-trione], which “Mtb gyrase IC50 fold higher” value [2] is on record?
The value was “around 2 fold”.

What about the “fold higher Mtb MIC compared to 8” value [3] of the same compound?
Its value is 9 to16 fold.

`C[C@@H]1CN2c3c(cc4c(N5CC[C@H](C#N)C5)noc4c3F)CC3(C(=O)NC(=O)NC3=O)[C@H]2[C@H](C)O1` [Compound 19, (S)-1-((2R,4S,4aS)-11-fluoro-2,4-dimethyl-2’,4’,6’-trioxo-1,1’,2,3’,4,4a,4’,6’-octahydro-2’H,6H-spiro[isoxazolo[4,5-g][1,4]oxazino[4,3-a]quinoline-5,5’-pyrimidin]-8-yl)pyrrolidine-3-carbonitrile] was tested. Which “Mtb gyrase IC50 fold higher” value [2] did it give?
Its value is no more than 2 fold.

With `C[C@@H]1CN2c3c(cc4c(OC[C@@H]5CCC(=O)N5C)noc4c3F)CC3(C(=O)NC(=O)NC3=O)[C@H]2[C@H](C)O1` [Compound 25, (2R,4S,4aS)-11-fluoro-2,4-dimethyl-8-(((S)-1-methyl-5-oxopyrrolidin-2-yl)methoxy)-1,2,4,4a-tetrahydro-2’H,6H-spiro[isoxazolo[4,5-g][1,4]oxazino[4,3-a]quinoline-5,5’-pyrimidine]-2’,4’,6’(1’H,3’H)-trione] as the compound, how does the “fold less active against Mtb than 23” value [3] read?
The value was 4 fold.

With `C[C@@H]1CN2c3c(cc4c(OC[C@@H]5CCC(=O)O5)noc4c3F)CC3(C(=O)NC(=O)NC3=O)[C@H]2[C@H](C)O1` [Compound 26, (2R,4S,4aS)-11-fluoro-2,4-dimethyl-8-(((S)-5-oxotetrahydrofuran-2-yl)methoxy)-1,2,4,4a-tetrahydro-2’H,6H-spiro[isoxazolo[4,5-g][1,4]oxazino[4,3-a]quinoline-5,5’-pyrimidine]-2’,4’,6’(1’H,3’H)-trione] as the compound, how does the “fold less active against Mtb than 23” value [3] read?
Its value is 2- to 4 fold.

How did the “fold less active against Mtb than 23” value [3] turn out when `C[C@@H]1CN2c3c(cc4c(OC[C@H]5CCC(=O)O5)noc4c3F)CC3(C(=O)NC(=O)NC3=O)[C@H]2[C@H](C)O1` [Compound 27, (2R,4S,4aS)-11-fluoro-2,4-dimethyl-8-(((R)-5-oxotetrahydrofuran-2-yl)methoxy)-1,2,4,4a-tetrahydro-2’H,6H-spiro[isoxazolo[4,5-g][1,4]oxazino[4,3-a]quinoline-5,5’-pyrimidine]-2’,4’,6’(1’H,3’H)-trione] was run?
Its value is 2- to 4 fold.

For `C[C@@H]1CN2c3c(cc4c(OC[C@H]5COC(=O)N5)noc4c3F)CC3(C(=O)NC(=O)NC3=O)[C@H]2[C@H](C)O1` [Compound 29, (2R,4S,4aS)-11-fluoro-2,4-dimethyl-8-(((S)-2-oxooxazolidin-4-yl)methoxy)-1,2,4,4a-tetrahydro-2’H,6H-spiro[isoxazolo[4,5-g][1,4]oxazino[4,3-a]quinoline-5,5’-pyrimidine]-2’,4’,6’(1’H,3’H)-trione], which “Mtb MIC” value [3] is on record?
The value was 2.0 µM.

And the MIC [3]?
Its MIC is 2 µM (≈ 1.01 µg/mL).

`C[C@@H]1CN2c3c(cc4c(OC[C@H]5CNC(=O)C5)noc4c3F)CC3(C(=O)NC(=O)NC3=O)[C@H]2[C@H](C)O1` [Compound 31, (2R,4S,4aS)-11-fluoro-2,4-dimethyl-8-(((R)-5-oxopyrrolidin-3-yl)methoxy)-1,2,4,4a-tetrahydro-2’H,6H-spiro[isoxazolo[4,5-g][1,4]oxazino[4,3-a]quinoline-5,5’-pyrimidine]-2’,4’,6’(1’H,3’H)-trione] was tested. Which “Mtb MIC” value [3] did it give?
The value was 2.0 µM.

And the MIC [3]?
Its MIC is 2 µM (≈ 1 µg/mL).

`C[C@@H]1CN2c3c(cc4c(OCC[C@@H]5CCC(=O)N5)noc4c3F)CC3(C(=O)NC(=O)NC3=O)[C@H]2[C@H](C)O1` [Compound 32, (2R,4S,4aS)-11-fluoro-2,4-dimethyl-8-(2-((S)-5-oxopyrrolidin-2-yl)ethoxy)-1,2,4,4a-tetrahydro-2’H,6H-spiro[isoxazolo[4,5-g][1,4]oxazino[4,3-a]quinoline-5,5’-pyrimidine]-2’,4’,6’(1’H,3’H)-trione] was tested. Which “fold less active against Mtb than 23” value [3] did it give?
Its value is ~ 4 fold.

With `C[C@@H]1CN2c3c(cc4c(N5C(=O)OC[C@@H]5C)noc4c3F)CC3(C(=O)NC(=O)NC3=O)[C@H]2[C@H](C)N1O` [Compound 35, (2R,4S,4aS)-11-fluoro-3-hydroxy-2,4-dimethyl-8-((S)-4-methyl-2-oxooxazolidin-3-yl)-2,3,4,4a-tetrahydro-1H,2’H,6H-spiro[isoxazolo[4,5-g]pyrazino[1,2-a]quinoline-5,5’-pyrimidine]-2’,4’,6’(1’H,3’H)-trione] as the compound, how does the pIC50 [2] read?
The pIC50 was 3.68.

`CC(=O)N1[C@H](C)CN2c3c(cc4c(N5C(=O)OC[C@@H]5C)noc4c3F)CC3(C(=O)NC(=O)NC3=O)[C@H]2[C@@H]1C` [Compound 36, (2R,4S,4aS)-3-acetyl-11-fluoro-2,4-dimethyl-8-((S)-4-methyl-2-oxooxazolidin-3-yl)-2,3,4,4a-tetrahydro-1H,2’H,6H-spiro[isoxazolo[4,5-g]pyrazino[1,2-a]quinoline-5,5’-pyrimidine]-2’,4’,6’(1’H,3’H)-trione] was tested. Which pIC50 [2] did it give?
The pIC50 was less than 3.00.

With `C[C@@H]1CN2c3c(cc4c(N5C(=O)OC[C@@H]5C)noc4c3F)CC3(C(=O)NC(=O)NC3=O)[C@H]2[C@H](C)N1C#N` [Compound 38, (2R,4S,4aS)-11-fluoro-2,4-dimethyl-8-((S)-4-methyl-2-oxooxazolidin-3-yl)-2’,4’,6’-trioxo-1,1’,2,3’,4,4a,4’,6’-octahydro-2’H,3H,6H-spiro[isoxazolo[4,5-g]pyrazino[1,2-a]quinoline-5,5’-pyrimidine]-3-carbonitrile] as the compound, how does the “fold more active against Mtb than matched pair zoliflodacin” value [3] read?
Its value is roughly 2 fold.

For `C[C@@H]1CN2c3c(cc4c(-n5cncn5)noc4c3F)CC3(C(=O)NC(=O)NC3=O)[C@H]2[C@H](C)N1C#N` [Compound 39, 11-fluoro-2,4-dimethyl-2’,4’,6’-trioxo-8-(1H-1,2,4-triazol-1-yl)-1,1’,2,3’,4,4a,4’,6’-octahydro-2’H,3H,6H-spiro[isoxazolo[4,5-g]pyrazino[1,2-a]quinoline-5,5’-pyrimidine]-3-carbonitrile], which “fold more active against Mtb than matched pair 7” value [3] is on record?
Its value is 2 fold.

And the MIC ([3]; 192 h)?
Its MIC is 0.9 µM (≈ 0.431 µg/mL).

`C[C@@H]1CN2c3c(cc4c(OC[C@@H]5CCC(=O)N5)noc4c3F)CC3(C(=O)NC(=O)NC3=O)[C@H]2[C@H](C)N1C#N` [Compound 42, (2R,4S,4aS)-11-fluoro-2,4-dimethyl-2’,4’,6’-trioxo-8-(((S)-5-oxopyrrolidin-2-yl)methoxy)-1,1’,2,3’,4,4a,4’,6’-octahydro-2’H,3H,6H-spiro[isoxazolo[4,5-g]pyrazino[1,2-a]quinoline-5,5’-pyrimidine]-3-carbonitrile] was tested. Which pIC50 [2] did it give?
Its pIC50 is 5.59.

With `Cc1nnc(-c2noc3c(F)c4c(cc23)CC2(C(=O)NC(=O)NC2=O)[C@H]2[C@H](C)[C@@H](O)[C@H](C)CN42)o1` [Compound 45, (2R,3S,4S,4aR)-11-fluoro-3-hydroxy-2,4-dimethyl-8-(5-methyl-1,3,4-oxadiazol-2-yl)-2,3,4,4a-tetrahydro-1H,2’H,6H-spiro[isoxazolo[4,5-g]pyrido[1,2-a]quinoline-5,5’-pyrimidine]-2’,4’,6’(1’H,3’H)-trione] as the compound, how does the “fold reduction in Mtb activity relative to matched pair 5” value [3] read?
The value was 10 fold.

For `Cc1nnc(-c2noc3c(F)c4c(cc23)CC2(C(=O)NC(=O)NC2=O)[C@H]2[C@H](C)O[C@H](C)CN42)o1` [Methyl-oxadiazole 5, reference compound], which “fold more potent as inhibitor of Mtb gyrase than moxifloxacin” value [2] is on record?
Its value is 5 fold.

What about the “fold less active against Mtb than moxifloxacin” value [3] of the same compound?
The value was 10 fold.

And the MIC [3]?
Its MIC is 1.7 µM (≈ 0.8 µg/mL).

With `C[C@@H]1CN2c3c(cc4c(N5C(=O)OC[C@@H]5C)noc4c3F)CC3(C(=O)NC(=O)NC3=O)[C@H]2[C@H](C)O1` [Zoliflodacin 4, zoliflodacin, reference compound] as the compound, how does the MIC [3] read?
The MIC was 7 µM (≈ 3.41 µg/mL).
